Biological target: T1, human GPR120 (Homo sapiens, UniProt Q5NUL3)
T1 construct: expressed in transfected cells
T1 sequence (Q5NUL3 1-361): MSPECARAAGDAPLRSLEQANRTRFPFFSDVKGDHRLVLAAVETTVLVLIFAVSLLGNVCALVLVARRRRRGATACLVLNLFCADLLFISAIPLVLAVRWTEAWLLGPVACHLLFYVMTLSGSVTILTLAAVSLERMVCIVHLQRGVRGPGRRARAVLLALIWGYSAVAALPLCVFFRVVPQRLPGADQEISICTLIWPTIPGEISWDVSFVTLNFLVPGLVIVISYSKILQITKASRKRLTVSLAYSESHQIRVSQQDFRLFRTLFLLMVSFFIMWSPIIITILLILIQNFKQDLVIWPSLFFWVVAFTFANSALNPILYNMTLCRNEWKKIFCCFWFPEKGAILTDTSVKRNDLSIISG
Test: Human GPR120 IP1 Assay (inositol phosphate turnover, CisBio IP-One kit)
Assay type: cell-based
Conditions: IP1 accumulation in CHO-K1 cells stably expressing the short form of human GPR120; 60 min compound incubation; 4-parameter fit; read-out: hGPR120 EC50
Text: Human GPR120 IP1 Assay Principle
The binding of small molecule agonists to the G-protein-coupled receptor GPR120 activates phospholipase C, and leads to the generation of inositol 1,4,5-trisphosphate (InsP3 or IP3). IP3 is subsequently de-phosphorylated to IP1, which accumulates in cells and is stable in the presence of lithium chloride.
In the present method, agonist-induced activation of the human GPR120 receptor was monitored by measuring the accumulation of IP1 in CHO-K1 cells that were stably expressing the short form of human GPR120 (Accession #NM_001195755). Following agonist addition, GPR120 activation and subsequent accumulation of IP1 was measured using a homogeneous Time Resolved Fluorescence-based ELISA commercially available from CisBio (IP-one ELISA Kit). The IP-One ELISA was a competitive immunoassay which uses IP1 labeled with […] and a terbium cryptate-labeled anti-IP1 monoclonal antibody. […] The signal loss was then back calculated to IP1 concentration using an IP1 standard curve. Determination of IP1 concentration was a direct measure of GPR120 activation and was used to determine compound potency (EC50).
Generation of GPR120-Expressing Cells:
Human GPR120 stable cell-lines were generated in CHO cells. The expression plasmids were transfected using lipofectamine (Life Technologies) following manufacturer's instructions. Stable cell-lines were generated following drug selection and single cell cloning.
Inositol Phosphate Turnover (IP1) Assay:
The assay was performed in 384-well format. CHO cells stably expressing human GPR120 were plated at […] per well in growth medium (DMEM/F12, 10% fetal calf serum). Cell plates were then incubated 16 hours at 37 degrees in a 5% CO2 incubator. Measurement of Inositol Phosphate Turnover (IP1) was performed using the CisBio IP-One kit (Part number 62IPAPEB). After the 16 hour incubation, the growth media was removed by centrifugation using the BlueWasher (AusWasher GUI Ver. v1.0.1.8) Protocol #21-“Light Dry” and 10 ul of stimulation buffer (prepared as described in the kit) was added to each well. In a separate plate, compounds were diluted in DMSO (200-fold over the final concentration in the assay well) and 50 nl was acoustically transferred to the appropriate well in the assay cell plate. The plates were then incubated for 60 minutes at 37 degrees in a 5% CO2 incubator. 10 ul of detection buffer (also prepared as described in the IP-One kit) was added to each well and the plates were incubated at room temperature for 60 minutes in the dark. The plates were then read in a Perkin Elmer EnVision or equivalent reader able to measure FRET. Fluorescent ratio of emission at 665 and 620 nm was then converted to the IP1 concentration by back calculating from an IP1 standard curve prepared at the time of the assay. The data was normalized to % activity using a reference compound, and the EC50 values were determined using a standard 4-parameter fit.

Structure (SMILES): CC1c2ccc(CCC(=O)O)cc2CCN1c1cc(OC2CCC2)ccc1F (centres unmarked) [Example 6, 3-(2-(5-cyclobutoxy-2-fluorophenyl)-1-methyl-1,2,3,4-tetrahydroisoquinolin-6-yl)-propanoic acid]
- EC50: 417 nM

Structure (SMILES): O=C(O)CCc1ccc2c(c1F)CCN(c1cc(OC3CCC3)ccc1F)C2 [Example 81, 3-{2-[5-(cyclobutyloxy)-2-fluoro-phenyl]-5-fluoro-1,2,3,4-tetrahydro-isoquinolin-6-yl}propanoic acid]
- EC50: 48 nM

Structure (SMILES): Cc1ccc(-n2nc(C)c(C#N)c2N2CCc3cc(CCCCC(=O)O)ccc3C2)cc1 [Example 134, 5-{2-[4-cyano-3-methyl-1-(4-methyl-phenyl)-1H-pyrazol-5-yl]-1,2,3,4-tetrahydroisoquinolin-6-yl}pentanoic acid]
- EC50: 41 nM

Structure (SMILES): O=C(O)[C@@H]1C[C@H]1c1ccc2c(c1F)CCN(c1cc(OC(F)(F)F)cc(F)c1Cl)C2 [Example 121, (1R,2R)-2-{2-[2-chloro-3-fluoro-5-(trifluoromethoxy)phenyl]-5-fluoro-1,2,3,4-tetra-hydroisoquinolin-6-yl}cyclo-propanecarboxylic acid]
- EC50: 73 nM

Structure (SMILES): C[C@H]1C[C@H](Oc2cc(F)c(F)c(N3CCc4c(ccc([C@@H]5C[C@H]5C(=O)O)c4F)C3)c2)C1 [Example 112, (1R,2R)-2-(2-{2,3-difluoro-5-[(trans-3-methylcyclobutyl)oxy]phenyl}-5-fluoro-1,2,3,4-tetrahydroisoquinolin-6-yl) cyclopropanecarboxylic acid]
- EC50: 42 nM

Structure (SMILES): CO[C@H]1C[C@H](Oc2cc(F)c(C#N)c(N3CCc4cc([C@@H]5C[C@H]5C(=O)O)ccc4C3)c2)C1 [Example 103, (1R,2R)-2-(2-{2-cyano-3-fluoro-5-[(trans-3-methoxycyclobutyl)oxy]phenyl}-1,2,3,4-tetrahydroiso-quinolin-6-yl)cyclopropane-carboxylic acid]
- EC50: 3000 nM

Structure (SMILES): COc1ccc(-n2nc(C)c(C#N)c2N2CCc3cc(CCCCC(=O)O)ccc3C2)cc1 [Example 133, 5-{2-[4-cyano-1-(4-methoxyphenyl)-3-methyl-1H-pyrazol-5-yl]-1,2,3,4-tetrahydroisoquinolin-6-yl} pentanoic acid]
- EC50: 50 nM

Structure (SMILES): CC1c2ccc(CCC(=O)O)cc2CCN1c1cc(OC2CCC2)cc(F)c1F (centres unmarked) [Example 49, 3-{2-[5-(cyclobutyloxy)-2,3-difluorophenyl]-1-methyl-1,2,3,4-tetrahydroisoquinolin-6-yl}-propanoic acid]
- EC50: 223 nM

Structure (SMILES): Cc1ccc(-n2nc(C)c(Cl)c2N2CCc3cc(CCC(=O)O)ccc3C2)cc1 [Example 22, 3-{2-[4-chloro-3-methyl-1-(4-methylphenyl)-1H-pyrazol-5-yl]-1,2,3,4-tetrahydroisoquinolin-6-yl} propanoic acid]
- EC50: 56 nM

Structure (SMILES): Cc1ccc(Oc2cc(C(F)F)c(F)c(N3CCc4cc(CCC(=O)O)ccc4C3)c2)nc1 [Example 16, 3-(2-{3-(difluoromethyl)-2-fluoro-5-[(5-methylpyridin-2-yl)oxy]phenyl}-1,2,3,4-tetrahydroiso-quinolin-6-yl)propanoic acid]
- EC50: 22 nM

Structure (SMILES): O=C(O)CCc1cc2c(cc1F)CN(c1cc(OC(F)(F)F)ccc1F)CC2 [Example 30, 3-{7-fluoro-2-[2-fluoro-5-(trifluoromethoxy)phenyl]-1,2,3,4-tetrahydroisoquinolin-6-yl}-propanoic acid]
- EC50: 134 nM

Structure (SMILES): O=C(O)[C@@H]1C[C@H]1c1ccc2c(c1F)CCN(c1cc(OC(F)(F)F)ccc1F)C2 [Example 113]
- EC50: 59 nM

Structure (SMILES): O=C(O)CCc1ccc2c(c1)CCN(c1cc(OC(F)(F)F)cc(Cl)c1Cl)C2 [Example 156, 3-{2-[2,3-dichloro-5-(trifluoro-methoxy)phenyl]-1,2,3,4-tetra-hydroisoquinolin-6-yl}propanoic acid]
- EC50: 62 nM

Structure (SMILES): N#Cc1ccc(OC2CCC2)cc1N1CCc2c(ccc(CCC(=O)O)c2F)C1 [Example 76, 3-{2-[2-cyano-5-(cyclobutyloxy)-phenyl]-5-fluoro-1,2,3,4-tetrahydro-isoquinolin-6-yl}propanoic acid]
- EC50: 845 nM

Structure (SMILES): Cc1ccc(-n2nc(C)c(C#N)c2N2CCc3cc(CCCCC(=O)O)ccc3C2)cc1 [Example 127, 5-(2-(4-cyano-3-methyl-1-(p-tolyl)-1H-pyrazol-5-yl)-1,2,3,4-tetrahydro-isoquinolin-6-yl)pentanoic acid]
- EC50: 35 nM

Structure (SMILES): O=C(O)CCc1ccc2c(c1Cl)CCN(c1cc(OC(F)(F)F)ccc1F)C2 [Example 72, 3-{5-chloro-2-[2-fluoro-5-(trifluoromethoxy)phenyl]-1,2,3,4-tetrahydroiso-quinolin-6-yl}propanoic acid]
- EC50: 1170 nM

Structure (SMILES): CO[C@H]1C[C@H](Oc2cc(F)c(F)c(N3CCc4cc([C@@H]5C[C@H]5C(=O)O)ccc4C3)c2)C1 [Example 99, (1R,2R)-2-(2-{2,3-difluoro-5-[(trans-3-methoxycyclobutyl)oxy]phenyl}-1,2,3,4-tetrahydro-isoquinolin-6-yl)-cyclopropanecarboxylic acid]
- EC50: 127 nM

Structure (SMILES): O=C(O)C1CC1c1ccc2c(c1)CCN(c1cc(OC(F)(F)F)cc(Cl)c1F)C2 (centres unmarked) [Example 105, 2-{2-[3-chloro-2-fluoro-5-(trifluoro-methoxy)phenyl]-1,2,3,4-tetra-hydroisoquinolin-6-yl}cyclo-propane-carboxylic acid]
- EC50: 6610 nM

Structure (SMILES): COc1cc(F)c(N2CCc3cc(CCC(=O)O)ccc3C2)cc1Oc1ncc(C)s1 [Example 21, 3-(2-{2-fluoro-4-methoxy-5-[(5-methyl-1,3-thiazol-2-yl)oxy]phenyl}-1,2,3,4-tetrahydroiso-quinolin-6-yl)propanoic acid]
- EC50: 51 nM

Structure (SMILES): CC(Cc1ccc2c(c1F)CCN(c1cc(OC(F)(F)F)cc(Cl)c1F)C2)C(=O)O (single isomer, unassigned) [Example 68, 3-{2-[3-chloro-2-fluoro-5-(trifluoromethoxy)phenyl]-5-fluoro-1,2,3,4-tetrahydroisoquinolin-6-yl}-2-methyl-propanoic acid]
- EC50: 58 nM

Structure (SMILES): O=C(O)[C@H]1C[C@@H]1c1ccc2c(c1)CCN(c1cc(OC(F)(F)F)ccc1F)C2 [Example 88, (1S,2S)-2-{2-[2-fluoro-5-(trifluoro-methoxy)phenyl]-1,2,3,4-tetra hydroisoquinolin-6-yl}cyclo-propane carboxylic acid]
- EC50: 110 nM

Structure (SMILES): O=C(O)[C@@H]1C[C@H]1c1ccc2c(c1)CCN(c1cc(OC(F)(F)F)ccc1F)C2 [Example 87, (1R,2R)-2-{2-[2-fluoro-5-(trifluoro-methoxy)phenyl]-1,2,3,4-tetra hydroisoquinolin-6-yl}cyclo-propane carboxylic acid]
- EC50: 74 nM

Structure (SMILES): O=C(O)[C@@H]1C[C@H]1c1ccc2c(c1F)CCN(c1cc(OC3CCC3)cc(Cl)c1F)C2 [Example 123, (1R,2R)-2-{2-[3-chloro-5-(cyclobutyloxy)-2-fluorophenyl]-5-fluoro-1,2,3,4-tetrahydroisoquinolin-6-yl}cyclopropane-carboxylic acid]
- EC50: 766 nM

Structure (SMILES): Cc1nc(OC2CCC2)cc(N2CCc3c(ccc(CCC(=O)O)c3F)C2)c1C#N [Example 149, 3-(2-(3-cyano-6-cyclobutoxy-2-methylpyridin-4-yl)-5-fluoro-1,2,3,4-tetrahydroisoquinolin-6-yl)propanoic acid]
- EC50: 33 nM

Structure (SMILES): O=C(O)CCc1ccc2c(c1)CCN(c1cc(Cl)c(C(F)(F)F)c(Cl)c1)C2 [Example 40, 3-{2-[3,5-dichloro-4-(trifluoro-methyl)phenyl]-1,2,3,4-tetrahydro-isoquinolin-6-yl}propanoic acid]
- EC50: 463 nM

Structure (SMILES): O=C(O)CCc1ccc2c(c1F)CCN(c1cc(OC3CCC3)cc(F)c1F)C2 [Example 64, 3-{2-[5-(cyclobutyloxy)-2,3-difluorophenyl]-5-fluoro-1,2,3,4-tetra-hydroisoquinolin-6-yl}propanoic acid]
- EC50: 15 nM
